Consider seven compounds from US12351580B2, “NLRP3 modulators” (Innate Tumor Immunity, Inc., priority 2017, dated 2025).

Molecules are shown by their SMILES.

The target of this assay is T1, hNLRP3 (Homo sapiens, UniProt Q96P20).
T1 construct: THP-1 cells were purchased from the American Type Culture Collection; host or cells: THP-1 cells, PMA-differentiated
T1 sequence (Q96P20 whole entry): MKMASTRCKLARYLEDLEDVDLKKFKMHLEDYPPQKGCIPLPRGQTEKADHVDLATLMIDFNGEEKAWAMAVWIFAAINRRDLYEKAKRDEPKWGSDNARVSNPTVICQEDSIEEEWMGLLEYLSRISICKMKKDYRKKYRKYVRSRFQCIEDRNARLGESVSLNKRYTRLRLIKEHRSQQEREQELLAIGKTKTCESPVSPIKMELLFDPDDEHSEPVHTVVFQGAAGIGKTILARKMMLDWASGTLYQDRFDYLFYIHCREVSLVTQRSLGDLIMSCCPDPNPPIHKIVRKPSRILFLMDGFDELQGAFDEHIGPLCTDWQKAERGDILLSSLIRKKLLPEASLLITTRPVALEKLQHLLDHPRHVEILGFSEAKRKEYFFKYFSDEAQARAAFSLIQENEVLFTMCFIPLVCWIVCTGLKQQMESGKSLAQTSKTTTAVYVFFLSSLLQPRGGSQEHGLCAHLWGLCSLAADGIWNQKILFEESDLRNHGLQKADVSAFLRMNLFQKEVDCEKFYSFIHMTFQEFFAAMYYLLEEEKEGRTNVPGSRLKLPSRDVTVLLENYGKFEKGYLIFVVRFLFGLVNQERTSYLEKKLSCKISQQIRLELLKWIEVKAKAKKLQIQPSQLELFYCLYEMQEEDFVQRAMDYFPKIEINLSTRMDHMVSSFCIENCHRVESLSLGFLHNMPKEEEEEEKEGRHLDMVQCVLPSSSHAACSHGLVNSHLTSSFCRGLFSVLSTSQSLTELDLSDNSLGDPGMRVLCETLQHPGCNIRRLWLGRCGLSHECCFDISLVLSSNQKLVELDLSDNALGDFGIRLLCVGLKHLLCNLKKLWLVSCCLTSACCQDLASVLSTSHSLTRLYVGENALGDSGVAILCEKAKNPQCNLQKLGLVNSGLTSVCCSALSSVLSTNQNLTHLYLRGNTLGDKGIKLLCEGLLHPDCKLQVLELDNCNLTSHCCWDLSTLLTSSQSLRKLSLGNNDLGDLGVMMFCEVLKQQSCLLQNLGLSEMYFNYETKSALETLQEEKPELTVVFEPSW
Briefly: Measurement of IL-1β production in PMA-differentiated THP-1 cells (hNLRP3 agonist; ELISA, alternative and hTRF procedures). Format: cell-based. Summed up:
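PMA-differentiated THP-1 cells (PMA […] 24 h, 20 μg/ml overnight, or 50 ng/ml overnight, by procedure) replated in RPMI with 2% FBS and exposed to compound (e.g. 100–0.1 μM, 1% DMSO; hTRF format top 10 μM) for 4 h, 2 h, or 2 h respectively. Supernatant IL-1β measured by ELISA, or by hTRF with antibodies diluted 1:40.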
For `CCN(Cc1nc2c(N)nc3cc(-n4cccn4)ccc3c2n1CCO)C(C)=O` [Compound 476, N-{[4-amino-1-(2-hydroxyethyl)-7-(1H-pyrazol-1-yl)-1H-imidazo[4,5-c]quinolin-2-yl]methyl}-N-ethylacetamide], the EC50 was determined as 6100 nM. This counts as single-digit micromolar.
For `CCNCc1nc2c(N)nc3cc(-n4cccn4)ccc3c2n1CCO` [Compound 477, 2-[4-amino-2-[(ethylamino)methyl]-7-(1H-pyrazol-1-yl)-1H-imidazo[4,5-c]quinolin-l-yl]ethan-1-ol] the value was 6300 nM; for `CCC(=O)N(CC)Cc1nc2c(N)nc3cc(-n4cccn4)ccc3c2n1CCO` [Compound 478, N-{[4-amino-1-(2-hydroxyethyl)-7-(1H-pyrazol-1-yl)-1H-imidazo[4,5-c]quinolin-2-yl]methyl}-N-ethylpropanamide], 3700 nM; for `CCN(Cc1nc2c(N)nc3cc(-n4cccn4)ccc3c2n1CC)C(C)=O` [Compound 479, N-{[4-amino-1-ethyl-7-(1H-pyrazol-1-yl)-1H-imidazo[4,5-c]quinolin-2-yl]methyl}-N-ethylacetamide], 670 nM.
Take `CCC(=O)N(CC)Cc1nc2c(N)nc3cc(-c4cccs4)ccc3c2n1CC` [Compound 480, N-{[4-amino-1-ethyl-7-(thiophen-2-yl)-1H-imidazo[4,5-c]quinolin-2-yl]methyl}-N-ethylpropanamide]: a half-maximal effect (EC50) was put at 1900 nM.
Compound `CCC(=O)N(CC)Cc1nc2c(N)nc3cc(-n4cccn4)ccc3c2n1CC` [Compound 481, N-{[4-amino-1-ethyl-7-(1H-pyrazol-1-yl)-1H-imidazo[4,5-c]quinolin-2-yl]methyl}-N-ethylpropanamide] showed an EC50 of 630 nM.
For `CCN(Cc1nc2c(N)nc3cc(-c4cccs4)ccc3c2n1CCO)C(C)=O` [Compound 482, N-{[4-amino-1-(2-hydroxyethyl)-7-(thiophen-2-yl)-1H-imidazo[4,5-c]quinolin-2-yl]methyl}-N-ethylacetamide] the value was 430 nM.
